Test results as given in patent publication US20080275111A1, “Novel Use of Lignan Compounds” (priority 2005, published 2008).

Experiments:
[1] = tested on: tissue-cultured hippocampus neuron; experiment: Reactive oxygen species production induced by BSO in tissue-cultured hippocampus neuron (DCFDA); assay type: cell-based, mouse; conditions: 1 mM BSO for 8 hours, compound 0.1, 0.5 and 1 μM; control not treated with BSO
Description: Then, the antioxidant effect of the lignan compound of the present invention in the tissue-cultured hippocampus neuron was analyzed. For this analysis, the hippocampus of a fetus extracted from a pregnant (18 days) mouse was cultured in neurobasal medium (Gibco BRL) containing B-27 supplements and 2 mM L-glutamine for 10 days. To induce oxidative stress to the tissue-cultured hippocampus neuron, it was treated with 1 mM BSO for 8 hours. Here, the tissue-cultured hippocampus neuron was also treated with each concentration (0.1, 0.5 and 1 μM) of the lignan compound of the present invention simultaneously to analyze the reactive oxygen species-inhibitory effect of the lignan compound of the present invention. The control was not treated with BSO. Then, the amount of reactive oxygen species produced was measured by a method known in the art (Jung, Y. S., Biochem Biophys Res Commun., 320(3):789-94, 2004) using 10 μM DCFDA(molecular probes).

IL-6 = IL-6 production in LPS-activated microglia (ELISA); assay type: cell-based, rat; conditions: 1 μg/ml LPS, compound 2.5 and 10 μM, 24 hours
Text: (§1) When the microglia is activated by LPS, it synthesizes and secretes various pro-inflammatory cytokines such as IL-1, IL-6 and TNF-α (Chen, S. Neurobiol. Aging, 17:781-787, 1996). Therefore, in order to examine the anti-inflammatory effect of the lignan compound of the present invention, the effect of the lignan compound of the present invention on the production of IL-6 and TNF-α in the activated microglia. First, only the neocortex was isolated from the brain of 1 day-old rat. Then, a microglia-astroglia mixture was prepared according to a method known in the art (Kim, H. Y. et al., J. Immunol., 171:6072-6079, 2003). […] Then, the amount of IL-6 and TNF-α secreted into the cell cultured medium was measured with the solid-phase ELISA system (RPN2742 for IL-6, RPN2744 for TNF-α, Amersham Bioscience). For this analysis, 50 μl of the supernatant of the cultured medium of microglia and 50 μl of the standard of each material (purely isolated and quantified IL-6 or TNF-α) were added into a 96-well plate coated with an antibody specific to mouse IL-6 and TNF-α. […] Then, 100 μl of a stop solution (Amersham Bioscience) was added into each well to stop the reaction, and the absorbance of the solution in each well was measured with a microreader at 450 nm. […]

TNF-α = TNF-α production in LPS-activated microglia (ELISA); assay type: cell-based, rat; conditions: 1 μg/ml LPS, compound 2.5 and 10 μM, 24 hours
Text: as §1

COX-2 = COX-2 expression in LPS-activated microglia (Western blotting); assay type: cell-based, mouse; conditions: 1 μg/ml LPS, compound 2.5 and 10 μM, 16 or 24 hours
Text: In Example <6-2>, it was observed that the NO production induced by LPS in the tissue-cultured microglia of mouse was inhibited by the lignan compound of the present invention. NO is produced by iNOS enzyme of which expression is induced by activation of microglia. Therefore, the correlation between the reduction of NO production and inhibition of iNOS expression was examined. Additionally, a change in the amount of a protein COX-2 participating in the production of other inflammation-mediating materials was examined. For Western blotting analysis, tissue-cultured microglia was cultured in a 60 mm cell culture dish up to a concentration of 7.5×10^5 cells/ml. After 1 day of cultivation, the activation of microglia was induced by 1 μg/ml of LPS (Sigma) treatment. Simultaneously, the microglia was also treated with 2.5 and 10 μM of the lignan compound of the present invention together with LPS, and incubated for 16 or 24 hours. The incubated cell was washed with cold PBS 2 times, and then dissolved in a cold lysis buffer (1% SDS, 1 mM Na3VO4, 10 mM NaF, 10 mM Tris-Cl, pH 7.4 containing 1× protease inhibitors cocktail). […] Then, the amount of proteins was quantified according to BCA method. […]
NaCl containing 0.1% Tween 20) 3 times. […] Again, the membrane was then washed with TBS-T solution 3 times, and each band on the membrane was analyzed using ECL system (Sigma).

COc1cc(C[C@H](C)[C@H](C)Cc2ccc3c(c2)OCO3)ccc1O [macelignan, (8R,8′S)-7-(3,4-methylenedioxyphenyl)-7′-(4-hydroxy-3-methoxyphenyl)-8,8′-dimethylbutane]
production of reactive oxygen species in the tissue-cultured hippocampus neuron [1]: in the similar level as the control | production of IL-6 induced by LPS (IL-6): dose-dependently inhibited | production of TNF-α induced by LPS (TNF-α): dose-dependently inhibited | expression of COX-2 induced by LPS (COX-2): inhibited in a concentration dependent manner
